These results are taken from paper PMC8911579, “(−)-Naringenin 4′,7-dimethyl Ether Isolated from Nardostachys jatamansi Relieves Pain through Inhibition of Multiple Channels” (Molecules, 2022).

Assay [1] has as its system endocannabinoid receptors. Also noted: method as in PMID 25686780. The following applies: radioligand binding; cited from earlier work.
The test system of another assay is opioid receptors. On the set-up: method as in PMID 25686780. To be noted: radioligand binding; cited from earlier work.
The next assay has as its system pain. On the set-up: method as in PMID 30193010. The following applies: in vivo; cited from earlier work.
For a further assay, the system named is pro-inflammatory factors. Also noted: method as in PMID 30193010. The following applies: compared to other naringenin derivatives; cited from earlier work.
A further assay deals with T1, TRPA1 channels (Homo sapiens, UniProt O75762).
T1 construct: expressed in transfected cells
Nature of the assay: whole-cell patch-clamp, TRPA1 stably expressed in HEK293 cells. It is filed as cell-based. (Patch clamp records ionic current or voltage across a cell membrane.)

For assay [2], the system named is Nav channels and Kv channels in cortical neurons. On the set-up: method as in PMID 34747100. The following applies: cited from earlier work.
A further assay relates to sleep. Also noted: method as in PMID 34747100. To be noted: extracted from peanut stem and leaf; cited from earlier work.

T1 sequence (O75762 whole entry): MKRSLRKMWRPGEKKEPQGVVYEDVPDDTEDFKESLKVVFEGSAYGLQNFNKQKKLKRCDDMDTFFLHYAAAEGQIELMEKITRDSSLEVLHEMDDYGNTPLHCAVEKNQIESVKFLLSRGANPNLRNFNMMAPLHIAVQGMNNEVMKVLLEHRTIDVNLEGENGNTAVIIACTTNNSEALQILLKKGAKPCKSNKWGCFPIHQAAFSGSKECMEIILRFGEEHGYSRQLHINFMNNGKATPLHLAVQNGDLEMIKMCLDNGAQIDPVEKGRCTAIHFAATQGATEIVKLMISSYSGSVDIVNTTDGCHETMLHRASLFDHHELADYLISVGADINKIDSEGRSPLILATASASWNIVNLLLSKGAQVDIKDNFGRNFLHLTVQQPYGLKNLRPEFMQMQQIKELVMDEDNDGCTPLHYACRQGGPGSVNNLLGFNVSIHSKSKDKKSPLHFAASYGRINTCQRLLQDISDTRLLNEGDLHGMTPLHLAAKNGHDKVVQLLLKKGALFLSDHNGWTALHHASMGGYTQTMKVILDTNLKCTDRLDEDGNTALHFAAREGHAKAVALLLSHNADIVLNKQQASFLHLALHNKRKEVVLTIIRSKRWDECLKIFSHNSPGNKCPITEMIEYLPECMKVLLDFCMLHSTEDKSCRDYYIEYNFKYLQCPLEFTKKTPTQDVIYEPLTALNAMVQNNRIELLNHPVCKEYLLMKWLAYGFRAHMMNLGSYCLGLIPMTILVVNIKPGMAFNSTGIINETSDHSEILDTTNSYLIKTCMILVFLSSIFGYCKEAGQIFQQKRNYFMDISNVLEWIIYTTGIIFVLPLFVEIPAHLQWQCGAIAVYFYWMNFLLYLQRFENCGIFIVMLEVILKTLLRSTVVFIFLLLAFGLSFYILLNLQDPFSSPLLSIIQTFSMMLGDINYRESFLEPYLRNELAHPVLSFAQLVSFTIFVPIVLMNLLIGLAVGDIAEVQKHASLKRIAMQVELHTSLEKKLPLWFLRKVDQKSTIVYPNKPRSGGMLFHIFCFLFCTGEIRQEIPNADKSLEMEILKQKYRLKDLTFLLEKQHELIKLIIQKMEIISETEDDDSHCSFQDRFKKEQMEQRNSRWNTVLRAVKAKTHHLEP

For `COc1ccc([C@@H]2CC(=O)c3c(O)cc(OC)cc3O2)cc1` [(+)-NRG-DM, (+)-naringenin 4′,7-dimethyl ether], the affinity entry (in assay [1]; with opioid receptors) was “does not show affinity” in each case. Moreover, in the assay with pain, the analgesic activity entry is “showed analgesic activity”. For the same compound, the “production and release of pro-inflammatory factors” value with pro-inflammatory factors is “did not influence the production and release of pro-inflammatory factors”.
As for `C=CCN=C=S` [AITC, allyl isothiocyanate], the “effect on TRPA1 currents” value at TRPA1 channels (10 µM, TRPA1 channel activator) was “induced”.
For the compound `CC(C)c1ccc(NC(=O)Cn2cnc3c2c(=O)n(C)c(=O)n3C)cc1` [HC030031], the “effect on TRPA1 currents” value on TRPA1 channels (30 µM, TRPA1 channel inhibitor) was “inhibited”.
In the case of `COc1ccc([C@@H]2CC(=O)c3c(O)cc(OC)cc3O2)cc1` [NRG-DM], the “inhibitory activity on Nav channels versus Kv channels” value in assay [2] was “more potent than that on Kv channels”. For the same compound, in the assay on sleep, the sleep entry is given as “promoted sleep”.
